# Columns and labels:
# [1] = test system: CHO-K1 cells; assay: Batch fermentation in shake flasks of human IgG1 expressing stable cell populations (Poros A-HPLC titer, viable cell density, viability); type: cell-based, Chinese hamster; details: for Productivity profile / Batch titer day 7: human IgG1
# [2] = test system: CHO-K1 cells; assay: Fed-batch fermentation in shake flasks of human IgG1 expressing stable cell populations; type: cell-based, Chinese hamster; details: non-selecting conditions; for Productivity profile: human IgG1
# [3] = Day 2 after inoculation, pJF1576, selected in CD Fusion + 10 µg/ml Puromycin, non-selecting conditions
# [4] = Day 2 after inoculation, pJF1576, selected in CD-Fusion w/o Pro + 0.25 mM Pro + 10 µg/ml Puromycin, non-selecting conditions
# [5] = Day 3 after inoculation, pJF1576, selected in CD Fusion + 10 µg/ml Puromycin, selective conditions
# [6] = Day 4 after inoculation, pJF1576, selected in CD Fusion + 10 µg/ml Puromycin, non-selecting conditions
# [7] = Day 4 after inoculation, pJF1576, selected in CD-Fusion w/o Pro + 0.25 mM Pro + 10 µg/ml Puromycin, non-selecting conditions
# [8] = Day 5 after inoculation, pJF1576, selected in CD Fusion + 10 µg/ml Puromycin, selective conditions
# [9] = Day 7 after inoculation, pJF1576, selected in CD Fusion + 10 µg/ml Puromycin, non-selecting conditions
# [10] = Day 7 after inoculation, pJF1576, selected in CD Fusion + 10 µg/ml Puromycin, selective conditions
# [11] = Day 7 after inoculation, pJF1576, selected in CD-Fusion w/o Pro + 0.25 mM Pro + 10 µg/ml Puromycin, non-selecting conditions
# [12] = Day 9 after inoculation, pJF1576, selected in CD Fusion + 10 µg/ml Puromycin, non-selecting conditions
# [13] = Day 9 after inoculation, pJF1576, selected in CD-Fusion w/o Pro + 0.25 mM Pro + 10 µg/ml Puromycin, non-selecting conditions
# [14] = Day 3 after inoculation, selected in CD-Fusion + 10 µg/ml Puromycin (pJF1576)
# [15] = Day 3 after inoculation, selected in CD-Fusion + 10 µg/ml Puromycin (pJF1579)
# [16] = Day 5 after inoculation, selected in CD-Fusion + 10 µg/ml Puromycin (pJF1579)
# [17] = Day 5 after inoculation, selected in CD-Fusion + 10 µg/ml Puromycin (pJF1576)
# [18] = Day 7 after inoculation, selected in CD-Fusion + 10 µg/ml Puromycin (pJF1579)
# [19] = Day 10 after inoculation, selected in CD-Fusion + 10 µg/ml Puromycin (pJF1576)
# [20] = Day 10 after inoculation, selected in CD-Fusion + 10 µg/ml Puromycin (pJF1579)
# [21] = Day 12 after inoculation, selected in CD-Fusion + 10 µg/ml Puromycin (pJF1579)
# [22] = Day 14 after inoculation, selected in CD-Fusion + 10 µg/ml Puromycin (pJF1576)
# [23] = Day 14 after inoculation, selected in CD-Fusion + 10 µg/ml Puromycin (pJF1579)
structure (smiles),measurement,setting,value
COc1ccc(C[C@H](N)C(=O)N[C@H]2[C@@H](O)[C@H](n3cnc4c(N(C)C)ncnc43)O[C@@H]2CO)cc1 [Puromycin],Viability profile,"[1]; Day 0 after inoculation, pJF1576, selected in CD Fusion + 10 µg/ml Puromycin, non-selecting conditions",98.7%
same,Viability profile,"[1]; Day 0 after inoculation, pJF1576, selected in CD Fusion + 10 µg/ml Puromycin, selective conditions",92.8%
same,Viability profile,"[1]; Day 0 after inoculation, pJF1576, selected in CD-Fusion w/o Pro + 0.25 mM Pro + 10 µg/ml Puromycin, non-selecting conditions",99.0%
same,Productivity profile,[1]; [3],6.9 mg/L
same,Productivity profile,"[1]; Day 2 after inoculation, pJF1576, selected in CD Fusion + 10 µg/ml Puromycin, selective conditions",10.9 mg/L
same,Productivity profile,[1]; [4],11.2 mg/L
same,Viability profile,[1]; [3],99.0%
same,Viable cell density profile,[1]; [3],"7,7E+05 VCD/ml"
same,Viability profile,[1]; [4],99.1%
same,Viable cell density profile,[1]; [4],"8,3E+05 VCD/ml"
same,Viability profile,[1]; [5],98.4%
same,Viable cell density profile,[1]; [5],1.7E+06 VCD/ml
same,Productivity profile,[1]; [6],15.1 mg/L
same,Productivity profile,"[1]; Day 4 after inoculation, pJF1576, selected in CD Fusion + 10 µg/ml Puromycin, selective conditions",27.6 mg/L
same,Productivity profile,[1]; [7],24.1 mg/L
same,Viability profile,[1]; [6],99.7%
same,Viable cell density profile,[1]; [6],"6,2E+06 VCD/ml"
same,Viability profile,[1]; [7],99.8%
same,Viable cell density profile,[1]; [7],"5,4E+06 VCD/ml"
same,Viability profile,[1]; [8],99.1%
same,Viable cell density profile,[1]; [8],7.1E+06 VCD/ml
same,Productivity profile,[1]; [9],43.3 mg/L
same,Productivity profile,[1]; [10],60.5 mg/L
same,Productivity profile,[1]; [11],60.6 mg/L
same,Viability profile,[1]; [9],98.7%
same,Viable cell density profile,[1]; [9],"1,2E+07 VCD/ml"
same,Viability profile,[1]; [10],97.7%
same,Viable cell density profile,[1]; [10],1.1E+07 VCD/ml
same,Viability profile,[1]; [11],97.8%
same,Viable cell density profile,[1]; [11],"1,0E+07 VCD/ml"
same,Productivity profile,[1]; [12],61.5 mg/L
same,Productivity profile,[1]; [13],92.5 mg/L
same,Viability profile,[1]; [12],43.9%
same,Viable cell density profile,[1]; [12],"5,8E+06 VCD/ml"
same,Viability profile,[1]; [13],58.1%
same,Viable cell density profile,[1]; [13],"6,2E+06 VCD/ml"
same,Batch titer day 7,"[1]; pJF1576, selected in CD Fusion + 10 µg/ml Puromycin, non-selecting conditions",145 mg/L
same,Batch titer day 7,"[1]; pJF1576, selected in CD-Fusion w/o Pro + 10 µg/ml Puromycin, non-selecting conditions",198 mg/L
same,Batch titer day 7,"[1]; pJF1576, selected in CD-Fusion w/o Pro + 0.25 mM Pro + 10 µg/ml Puromycin, non-selecting conditions",164 mg/L
same,Batch titer day 7,"[1]; pJF1577, selected in CD Fusion + 10 µg/ml Puromycin, non-selecting conditions",174 mg/L
same,Batch titer day 7,"[1]; pJF1577, selected in CD-Fusion w/o Pro + 10 µg/ml Puromycin, non-selecting conditions",154 mg/L
same,Batch titer day 7,"[1]; pJF1577, selected in CD-Fusion w/o Pro + 0.25 mM Pro + 10 µg/ml Puromycin, non-selecting conditions",127 mg/L
same,Viability profile,"[2]; Day 0 after inoculation, selected in CD-Fusion + 10 µg/ml Puromycin (pJF1576)",99.8%
same,Viability profile,"[2]; Day 0 after inoculation, selected in CD-Fusion + 10 µg/ml Puromycin (pJF1579)",99.8%
same,Productivity profile,[2]; [14],13.6 mg/L
same,Productivity profile,[2]; [15],12.4 mg/L
same,Viability profile,[2]; [14],99.9%
same,Viable cell density profile,[2]; [14],"1,4E +06 VCD/ml"
same,Viability profile,[2]; [15],99.8%
same,Viable cell density profile,[2]; [15],"1,8E +06 VCD/ml"
same,Productivity profile,[2]; [16],24.4 mg/L
same,Viability profile,[2]; [17],99.8%
same,Viable cell density profile,[2]; [17],"4,8E +06 VCD/ml"
same,Viability profile,[2]; [16],99.9%
same,Viable cell density profile,[2]; [16],"5,6E +06 VCD/ml"
same,Productivity profile,[2]; [18],60.0 mg/L
same,Viable cell density profile,"[2]; Day 7 after inoculation, selected in CD-Fusion + 10 µg/ml Puromycin (pJF1576)","9,5E +06 VCD/ml"
same,Viability profile,[2]; [18],99.2%
same,Viable cell density profile,[2]; [18],"1,2E +07 VCD/ml"
same,Productivity profile,[2]; [19],182.0 mg/L
same,Productivity profile,[2]; [20],155.1 mg/L
same,Viable cell density profile,[2]; [19],"1,2E +07 VCD/ml"
same,Viability profile,[2]; [20],97.9%
same,Viable cell density profile,[2]; [20],"1,5E +07 VCD/ml"
same,Productivity profile,[2]; [21],265.9 mg/L
same,Viability profile,"[2]; Day 12 after inoculation, selected in CD-Fusion + 10 µg/ml Puromycin (pJF1576)",96.2%
same,Viability profile,[2]; [21],97.5%
same,Viable cell density profile,[2]; [21],"1,0E +07 VCD/ml"
same,Productivity profile,[2]; [22],442.2 mg/L
same,Productivity profile,[2]; [23],372.0 mg/L
same,Viability profile,[2]; [22],86.2%
same,Viable cell density profile,[2]; [22],"7,4E +06 VCD/ml"
same,Viability profile,[2]; [23],92.7%
same,Viable cell density profile,[2]; [23],"9,7E +06 VCD/ml"

# Source: patent publication EP3521435A1, “A HIGH STRINGENCY SELECTION SYSTEM FOR PROTEIN EXPRESSION IN PROLINE-AUXOTROPHIC CELLS” (Bayer AG, priority 2018, dated 2019)
